The source of these data is patent EP0095262A1, “Azabicycloalkane derivatives, their preparation and medicaments containing them” (BEECHAM GROUP PLC, priority 1982, dated 1983).

In this assay the test system is post-synaptic Dopamine (D.A.) receptors. The experiment in a line: Inhibition of apomorphine induced climbing in the mouse. Format: in vivo. Particulars: dose for 50% inhibition of climbing induced by apomorphine 1 mg/kg s.c., male CD1 mice. Here is the method:
The results in the following table are an illustration of the anti-psychotic activity of the present compounds as shown by Inhibition of Apormorphine Induced Climbing in the Mouse, a standard test.
The test is based on that described by Protais, P., Constantin, J. and Schwartz J.C. (1976), Psychopharmacology, 50, 1-6.
When mice are given a dose of 1 mg/kg apomorphine and then placed in an enclosed environment, such as an inverted wire cage, they are seen to climb around the walls. This behavioural phenomenon is thought to be a consequence of the stimulation of post-synaptic Dopamine (D.A.) receptors in the nucleus accumbens. Inhibition of apomorphine induced climbing is therefore indicative of post-synaptic D.A. receptor blockade in the accumbens.
Groups of lO male CD1 mice, weighing 25-30 g were pre-treated orally with either graded doses of the test compound or vehicle, at appropriate time intervals before the subcutaneous administration of a sub-maximal dose of apomorphine (1 mg/kg). Immediately after the apomorphine injection the mice were placed in wire 'climbing cages' and each animal was scored for climbing behavour at 10 and 20 minutes post apomorphine as follows:-
The total score was calculated for each group of mice and expressed as a percentage inhibition of climbing. [formula]
ED50's and fiducial limits were calculated according to the method of Litchfield and Wilcoxon, the ED50 being the dose that produced a 50% inhibition of apomorphine - induced climbing.

Compound “2,3-Dimethoxy-N-[7'-exo-Methyl-9'-(4-methylbenzyl)-9'-aza- bicycclo-[3.3.1]-non-3-β-yl]benzamide [Example 8]” came in with an ED50 (p.o., ½ hr post dosing, 30 min) of 0.48 p.o. ½ hr mg/kg.
Still for that read-out and setting: then “2-[7'-exo-Methyl-9'-(4-methyl benzyl)-9'-aza-bicyclo[3.3.1] -non-3-β-yl]-phthalimidine [Example 9]”, with 2.65 p.o. ½ hr mg/kg.
Same read-out and setting: next, “4-Amino-5 -Chloro-2-Methoxy-N-[7'-Methyl-9'-(4-Methylbenzyl)-9'-aza-bicyclo[3.3.1]-non-3-P-yl]benzamide [Example 5]”: 0.6 p.o. ½ hr mg/kg; “4-Amino-5-Chloro-2-Methoxy-N-[6'-endomethyl-9'-(4 methyl- benzyiyl)-9'-aza-bicyclo[3.3,1]-non-3-β- 1]benzamide [Example 6]”: 1.1 p.o. ½ hr mg/kg; “4-Amino-5-Chloro-2-Methoxy-N-[6'-exo-methl-9'-(4-methylbenzyl)-9'-aza-bicyclo[3.3.1]-non-3-β-yl]benzamide [Example 7]”: 2.75 p.o. ½ hr mg/kg.
As for “4-Amino-5-chloro-2-methoxy-N-[6'-exo-hydroxy-8'-benzyl-8'-azabicyclol[3.2.1]-oct-3'-β-yl]-benzamide [Example 4]”, the ED50 (s.c., 4 hrs post dosing) amounted to 0.47 s.c. 4 hrs mg/kg.
Take `COc1cc(N)c(Cl)cc1C(=O)NC1CC2CC(C)C(C1)N2Cc1ccc(C)cc1` (stereo not drawn) [Example 1, 4-Amiho-5-chloro-2-rnethoxyy-N-[6'-exo-methyl-8'-(4-methylbenzyl)-8'-azabicycloro[3.2.1]-oct-3-β-yl]-benzamide]: for the setting “p.o., ½ hr post dosing, 30 min”, the ED50 was 0.19 p.o. ½ hr mg/kg.
